Test results published in patent US11505592B2, “Diagnosis and therapy of multiple sclerosis” (PRINDEX S.R.L., priority 2015, dated 2022).

System: MS IgG
Assay: Indirect ELISA of MS IgG binding to receptor peptides
Parameters: species or system human
Settings: 200 μg immunoglobulins
Description: FIG. 6: Dose-response curves of the interaction between MS sera and DDSK peptide. (A) Sera of Multiple Sclerosis patients and Control (control group is defined in material and method below) (200 μg) were incubated with different concentrations (50-100-250 μM) of peptide DDSK. For the detection, inventors used a secondary antibody anti human IgG conjugated with HRP and (3,3′,5,5′-Tetramethylbenzidine) TMB solution that was added for each well and incubated for 15-30 min. Equal volume of stopping solution (2 M H2SO4) was added to the plate and absorbance (optical density) of plate was read at 450 nm. The statistical analysis derived from 9 experiments. Values are mean±SEM. *P<0.05 MS vs CTRL (B) Linear representation of dose-response curve Values are mean±SEM. *P<0.05 MS vs CTRL.
FIGS. 7A, 7B, 7C and 7D: MS sera recognize specially receptor's peptides. […] Equal volume of stopping solution (2 M H2SO4) was added to the plate and absorbance (optical density) of plate was read at 450 nm. […]
A. Sera of Multiple Sclerosis patients and Control (200 μg) were incubated in absence (uncoated) or presence of 100 μM of DDSK peptide. […] Equal volume of stopping solution (2 M H2SO4) was added to the plate and absorbance (optical density) of plate was read at 450 nm. […]
Diluted peptide (20 μg/ml) was coated to the wells of a PVC microtiter plate and incubated at 4° C. overnight. […] For the detection, we used a secondary antibody anti human (recognized constant region of the patient antibody conjugated with HRP and (3,3′,5,5′-Tetramethylbenzidine) TMB solution that was added for each well and incubated for 15-30 min. Equal volume of stopping solution (2 M H2SO4) was added to the plate and absorbance (optical density) of plate was read at 450 nm.
To evaluate the peptide concentration to use for ELISA assay we performed a dose-response curve. […] (named DDSK in the figures) and the absorbance (optical density) of plate was read at 450 nm. […]

## DDSKVFKEGS
100 μM peptide
  binding of MS IgG to peptide respect to scrambled: bind specifically
dose-response 50-100-250 μM peptide, absorbance 450 nm
  peptide concentration at which MS IgG bind the peptide: higher than 50 μM
